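In this assay, cells in 96-well plates receive the compound at five concentrations for 48 hours. Endpoints are linearly interpolated between the surrounding concentrations. TGI is the concentration that stops growth completely.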
Columns and labels:
Experiment in all cases: growth of human tumour cells (NCI), 48 h
SK-OV-3 ovarian = tested on: SK-OV-3 ovarian
786-0 renal = tested on: 786-0 renal
ACHN renal = tested on: ACHN renal
HOP-62 NSCLC = tested on: HOP-62 NSCLC
A498 renal = tested on: A498 renal
SF-539 CNS = tested on: SF-539 CNS
MALME-3M melanoma = tested on: MALME-3M melanoma
NCI-H23 lung = tested on: NCI-H23 lung
HOP-92 NSCLC = tested on: HOP-92 NSCLC
K-562 leukemia = tested on: K-562 leukemia
SR leukemia = tested on: SR leukemia
RXF 393 renal = tested on: RXF 393 renal
HT29 colon = tested on: HT29 colon
SNB-75 CNS = tested on: SNB-75 CNS
U251 CNS = tested on: U251 CNS
SN12C renal = tested on: SN12C renal
EKVX NSCLC = tested on: EKVX NSCLC
BT-549 breast = tested on: BT-549 breast
MDA-MB-435 = tested on: MDA-MB-435
CCRF-CEM leukemia = tested on: CCRF-CEM leukemia
OVCAR-5 ovarian = tested on: OVCAR-5 ovarian
A549 NSCLC = tested on: A549 NSCLC
LOX IMVI melanoma = tested on: LOX IMVI melanoma
UACC-62 melanoma = tested on: UACC-62 melanoma
HS 578T breast = tested on: HS 578T breast
OVCAR-8 ovarian = tested on: OVCAR-8 ovarian
OVCAR-3 ovarian = tested on: OVCAR-3 ovarian
UO-31 renal = tested on: UO-31 renal
SW-620 colon = tested on: SW-620 colon
NCI-H226 lung = tested on: NCI-H226 lung
PC-3 prostate = tested on: PC-3 prostate
IGROV1 ovarian = tested on: IGROV1 ovarian
CAKI-1 renal = tested on: CAKI-1 renal
NCI-H460 lung = tested on: NCI-H460 lung
OVCAR-4 ovarian = tested on: OVCAR-4 ovarian
SK-MEL-2 melanoma = tested on: SK-MEL-2 melanoma
HL-60(TB) leukemia = tested on: HL-60(TB) leukemia
TK-10 renal = tested on: TK-10 renal
MOLT-4 leukemia = tested on: MOLT-4 leukemia
SNB-19 CNS = tested on: SNB-19 CNS
UACC-257 melanoma = tested on: UACC-257 melanoma
NCI/ADR-RES ovarian = tested on: NCI/ADR-RES ovarian
SK-MEL-28 melanoma = tested on: SK-MEL-28 melanoma
MCF7 breast = tested on: MCF7 breast
NCI-H522 lung = tested on: NCI-H522 lung
KM12 colon = tested on: KM12 colon
HCT-116 colon = tested on: HCT-116 colon
M14 melanoma = tested on: M14 melanoma
SF-295 CNS = tested on: SF-295 CNS
SF-268 CNS = tested on: SF-268 CNS
HCC-2998 colon = tested on: HCC-2998 colon
MDA-N = tested on: MDA-N
RPMI-8226 leukemia = tested on: RPMI-8226 leukemia
HCT-15 colon = tested on: HCT-15 colon
COLO 205 colon = tested on: COLO 205 colon
DU-145 prostate = tested on: DU-145 prostate
SK-MEL-5 melanoma = tested on: SK-MEL-5 melanoma
MDA-MB-231 breast = tested on: MDA-MB-231 breast

Work on `CCN(CC)CCn1nc(N)c2nc3ccccc3nc21` yielded a TGI (SK-OV-3 ovarian) greater than 100 µM, a TGI (786-0 renal) greater than 100 µM and a TGI (ACHN renal) greater than 100000 nM. It also gave a TGI (HOP-62 NSCLC) greater than 100000 nM, a TGI (A498 renal) greater than 100 µM and a TGI (SF-539 CNS) greater than 100 µM. It also gave a TGI (MALME-3M melanoma) greater than 100 µM, a TGI (NCI-H23 lung) greater than 100000 nM and a TGI (HOP-92 NSCLC) greater than 100000 nM. It also gave a TGI (K-562 leukemia) greater than 100 µM, a TGI (SR leukemia) greater than 100 µM and a TGI (RXF 393 renal) greater than 100000 nM. For the same compound, the TGI (HT29 colon) was greater than 100000 nM, the TGI (SNB-75 CNS) was greater than 100 µM and the TGI (U251 CNS) was greater than 100000 nM. For the same compound, the TGI (SN12C renal) was greater than 100 µM, the TGI (EKVX NSCLC) was greater than 100000 nM and the TGI (BT-549 breast) was greater than 100000 nM. It also gave a TGI (MDA-MB-435) greater than 100000 nM, a TGI (CCRF-CEM leukemia) greater than 100000 nM and a TGI (OVCAR-5 ovarian) greater than 100 µM. The TGI (A549 NSCLC) was greater than 100000 nM, the TGI (LOX IMVI melanoma) was greater than 100000 nM and the TGI (UACC-62 melanoma) was greater than 100000 nM. For the same compound, the TGI (HS 578T breast) was greater than 100000 nM, the TGI (OVCAR-8 ovarian) was greater than 100 µM and the TGI (OVCAR-3 ovarian) was greater than 100000 nM. The TGI (UO-31 renal) was greater than 100000 nM, the TGI (SW-620 colon) was greater than 100000 nM and the TGI (NCI-H226 lung) was greater than 100 µM. It also gave a TGI (PC-3 prostate) greater than 100000 nM, a TGI (IGROV1 ovarian) greater than 100000 nM and a TGI (CAKI-1 renal) greater than 100000 nM. It also gave a TGI (NCI-H460 lung) greater than 100 µM, a TGI (OVCAR-4 ovarian) greater than 100 µM and a TGI (SK-MEL-2 melanoma) greater than 100000 nM. For the same compound, the TGI (HL-60(TB) leukemia) was greater than 100000 nM, the TGI (TK-10 renal) was greater than 100000 nM and the TGI (MOLT-4 leukemia) was greater than 100000 nM. It also gave a TGI (SNB-19 CNS) greater than 100000 nM, a TGI (UACC-257 melanoma) greater than 100000 nM and a TGI (NCI/ADR-RES ovarian) greater than 100000 nM. For the same compound, the TGI (SK-MEL-28 melanoma) was greater than 100000 nM, the TGI (MCF7 breast) was greater than 100000 nM and the TGI (NCI-H522 lung) was greater than 100 µM. For the same compound, the TGI (KM12 colon) was greater than 100000 nM, the TGI (HCT-116 colon) was greater than 100 µM and the TGI (M14 melanoma) was greater than 100000 nM. For the same compound, the TGI (SF-295 CNS) was greater than 100 µM, the TGI (SF-268 CNS) was greater than 100000 nM and the TGI (HCC-2998 colon) was greater than 100000 nM. For the same compound, the TGI (MDA-N) was greater than 100 µM, the TGI (RPMI-8226 leukemia) was greater than 100000 nM and the TGI (HCT-15 colon) was greater than 100000 nM.

With `c1ccc(CCCCNCc2cc(CNCCCCc3ccccc3)cc(CNCCCCc3ccccc3)c2)cc1` the TGI (SK-OV-3 ovarian) was 3.41 µM, the TGI (786-0 renal) was 26.4 µM and the TGI (ACHN renal) was 2950 nM. The TGI (NCI-H23 lung) was 2110 nM, the TGI (K-562 leukemia) was greater than 100 µM and the TGI (SN12C renal) was 23.5 µM. For the same compound, the TGI (BT-549 breast) was 2830 nM, the TGI (CCRF-CEM leukemia) was 432 nM and the TGI (OVCAR-5 ovarian) was 3.22 µM. The TGI (A549 NSCLC) was 326 nM, the TGI (OVCAR-3 ovarian) was 2770 nM and the TGI (UO-31 renal) was 949 nM. For the same compound, the TGI (NCI-H460 lung) was greater than 100 µM, the TGI (HL-60(TB) leukemia) was 434 nM and the TGI (SNB-19 CNS) was 908 nM. It also gave a TGI (NCI/ADR-RES ovarian) of 1100 nM, a TGI (SK-MEL-28 melanoma) of 1840 nM and a TGI (COLO 205 colon) of 644 nM. It also gave a TGI (HCT-116 colon) of 6.42 µM, a TGI (M14 melanoma) of 330 nM and a TGI (DU-145 prostate) of 2070 nM. It also gave a TGI (SF-295 CNS) of 3.06 µM, a TGI (MDA-N) of 10.2 µM and a TGI (HCT-15 colon) of 368 nM.

Work on `Nc1nc(I)nc2c1ncn2C1OC(COS(N)(=O)=O)C(O)C1O` (stereo not given) yielded a TGI (SK-OV-3 ovarian) of 0.0458 µM, a TGI (786-0 renal) of 0.0297 µM and a TGI (ACHN renal) of 211 nM. The TGI (HOP-62 NSCLC) was 83.6 nM, the TGI (A498 renal) was less than 0.01 µM and the TGI (SF-539 CNS) was less than 0.014 µM. It also gave a TGI (MALME-3M melanoma) of less than 0.01 µM, a TGI (NCI-H23 lung) of 32.4 nM and a TGI (HOP-92 NSCLC) of 46.4 nM. It also gave a TGI (K-562 leukemia) of 0.37 µM, a TGI (SR leukemia) of less than 0.01 µM and a TGI (RXF 393 renal) of 44.1 nM. It also gave a TGI (HT29 colon) of 35.3 nM, a TGI (SNB-75 CNS) of less than 0.0136 µM and a TGI (SK-MEL-5 melanoma) of less than 11.3 nM. For the same compound, the TGI (U251 CNS) was 24.3 nM, the TGI (SN12C renal) was 0.032 µM and the TGI (EKVX NSCLC) was 57.3 nM. It also gave a TGI (BT-549 breast) of 103 nM, a TGI (MDA-MB-435) of 13.8 nM and a TGI (CCRF-CEM leukemia) of 26.8 nM. It also gave a TGI (OVCAR-5 ovarian) of 0.0189 µM, a TGI (A549 NSCLC) of 201 nM and a TGI (LOX IMVI melanoma) of 25.1 nM. The TGI (MDA-MB-231 breast) was less than 23.8 nM, the TGI (UACC-62 melanoma) was 60.6 nM and the TGI (HS 578T breast) was 27.3 nM. The TGI (OVCAR-8 ovarian) was less than 0.0106 µM, the TGI (OVCAR-3 ovarian) was 12 nM and the TGI (UO-31 renal) was 65.3 nM. It also gave a TGI (SW-620 colon) of 165 nM, a TGI (NCI-H226 lung) of less than 0.0159 µM and a TGI (PC-3 prostate) of 42.3 nM. For the same compound, the TGI (IGROV1 ovarian) was 40.1 nM, the TGI (CAKI-1 renal) was 129 nM and the TGI (NCI-H460 lung) was 0.108 µM. It also gave a TGI (OVCAR-4 ovarian) of less than 0.0158 µM, a TGI (SK-MEL-2 melanoma) of 10.7 nM and a TGI (TK-10 renal) of 71 nM. The TGI (MOLT-4 leukemia) was 41.6 nM, the TGI (SNB-19 CNS) was less than 13 nM and the TGI (UACC-257 melanoma) was 71.6 nM. It also gave a TGI (NCI/ADR-RES ovarian) of less than 12.5 nM, a TGI (SK-MEL-28 melanoma) of 14.8 nM and a TGI (MCF7 breast) of 207 nM. It also gave a TGI (NCI-H522 lung) of less than 0.01 µM, a TGI (COLO 205 colon) of 16.7 nM and a TGI (KM12 colon) of 29.7 nM. The TGI (HCT-116 colon) was 0.0534 µM, the TGI (M14 melanoma) was 28 nM and the TGI (DU-145 prostate) was less than 19.3 nM. The TGI (SF-295 CNS) was 0.168 µM, the TGI (SF-268 CNS) was 18 nM and the TGI (HCC-2998 colon) was 31.1 nM. It also gave a TGI (MDA-N) of 0.0135 µM, a TGI (RPMI-8226 leukemia) of 172 nM and a TGI (HCT-15 colon) of 305 nM.

From PubChem BioAssay (NCI)
